Results taken from US20220249525A1, “Fatty Acid Compounds for Prevention and Treatment of Neurodegenerative Disorders” (T OMEGA AS, priority 2019, published 2022).

How the values were obtained:
[1] = tested on: HCC827 cells; experiment: Mitochondria respiration assay (OCR, extracellular flux) in HCC827 cells; format: cell-based
Experimental: Non-small cell lung cancer cells, HCC827 (ATCC) were cultured in RPMI-1640 Glutamax medium (Sigma-Aldrich St. Louis, Mo., USA), under conventional culture conditions. Media was supplemented with 10% Fetal Bovine Serum (FBS), 1% glutamine and 1% streptomycin/penicillin (Sigma-Aldrich). HeLaNRF1/c4 reporter cells were cultured in Dulbecco's Modified Eagle's Medium (DMEM) supplemented with 10% FBS, 2 mM L-Glutamine, 100 u/ml penicillin/streptomycin (Sigma-Aldrich,). Incubation was done at 37° C. in 5% CO2.
Mitochondria function was analyzed by measuring oxygen consumption rate (OCR) by extracellular flux analysis in a Seahorse XFe96 instrument (Agilent Seahorse XF Technologies). The measurements were performed in DADA basic media without phenol red, supplemented with L-glutamine (2 mM), pyruvate (2 mM), and sodium chloride, NaCl (32 mM) (Sigma-Aldrich). Respiratory rates were measured following sequential additions of glucose (10 mM), oligomycin, carbonyl cyanide m-chlorophenyl hydrazine (CCCP) and a mixture of rotenone (1 μM) and antimycin A (1 μM). Before carrying out the measurements for each cell model, optimizations were done for; cell number, CCCP, and oligomycin concentrations. For the HCC 827 cell model optimal conditions were; 30,000 cells/well, 0.5 μM CCCP, and 3 μM Oligomycin; and in HeLaNRF1/c4 reporter cell model; 20,000 cells/well, 1 μM CCCP and 3 μM Oligomycin. The OCR measured initially (before any additions) represented the rate ‘basal respiration.’ The addition of ATP synthase inhibitor oligomycin provided oxygen consumption independent of ATP production (‘leak activity’). Maximal respiration (also referred to as ‘respiratory capacity’) was measured upon addition of the uncoupler CCCP. […] After the extracellular flux analysis the analysis plates were washed with Phosphate Buffered Saline (PBS) and frozen at −80° C. The BCA assay (Pierce BCA protein assay kit, Thermo Fisher Scientific, Waltham, Mass. USA) was employed to measure the protein content in the wells. To evaluate the effects of the different treatments, the respiratory rates from compound-treated wells were normalized to protein content, and calculated as percentage of the average respiratory rate of the DMSO-treated control wells. All treatments were performed with 6-8 replicate wells.

[2] = tested on: SH-SY5Y cells; experiment: WST-1 cell viability assay in SH-SY5Y cells; format: cell-based; conditions: 4 days, 31-125 μM
Experimental: The fatty acids (FAs) TTA, tr-TTA, N-TTA, tr-N-TTA and (PA) were complexed with FBS following the same procedure, differing only in final stock concentration, due to variation in solubility. Approximately 0.07 g of FA was weighed in a 10 ml sterile serum tube (BD Vacutainer®, catalog no. 368430) and dissolved in sterile filtrated 0.1 M sodium hydroxide (NaOH) of a volume giving 25 mM FA, controls without FA were made, containing only NaOH and FBS. A syringe (Sterican®, catalog no. 4657577) was pierced through the rubber cap of the serum tube, and the tube was placed in an 80° C. water bath until the FAs were dissolved. Each FA-solution was then diluted in inactivated FBS to stock concentration 1 mM (N-TTA, tr-N-TTA), and 2 mM by adding the FA to a volume of 100% FBS after heating the FBS to 45° C. in a water bath. The transfer of FA to FBS had to be executed controlled and swiftly to avoid the formation of precipitates. If any precipitates in the solution were visible, the FA and a new volume of FBS were reheated, and the procedure performed again. Following successful complexation, the stock solutions were stored at −20° C. in 1 ml aliquots (CryoPure tube, Sarstedt AG & Co, Nümbrecht, Germany).
The WST-1 cell proliferation assay was performed using the kit from Roche (table 4.2.) and its accompanying procedure (version 16, February 2011) (134). The number of cells seeded to each well in the 96-well plates (Corning Inc., catalog no. 353072) varied depending on the treatment time and cell type (table 3.).
Cell suspension and medium were then transferred to each well in a volume of 100 μl in total. Subsequently, the plates were incubated for 24 hours to make the cells settle. The next day, 100 μl with FA complexed with FBS or diluted in DMSO was added to row A or B in the 96-well plate to give a defined concentration. The solution was then mixed with a pipette, and 100 μl of the medium with FA was transferred to the next well in the same column, mixed by pipetting up and down at least five times before 100 μl was transferred again to the next well in the column. This procedure was repeated until the second last, or last well in each column was reached, making a series of two-fold dilution of the FAs in the cell medium. Two parallels were performed for every treatment per run. After the addition of FAs, the plates were incubated for 24-96 hours depending on the length of the treatment.
Following the FA-treatment, the cells were studied under a microscope to ensure that visual observations matched the measured absorbance and cell activity in the assay. Subsequently, 10 μl WST-1 reagent was added to each well, and the plates were incubated for 3 hours. Due to high activity in the HuH-7 cell line, the WST-1 reagent was diluted 1:1 with PBS. Before the measurement of absorbance, the plates were placed on a shaker for 1 minute ensuring thoroughly mixing of the wells. The plates were then put straight into the spectrophotometer (SpectraMax Plus 384 Microplate Reader, Molecular Devices Corporation, San Jose, Calif., USA) to perform the measurements. […] The absorbance of the samples was measured at 450 nm, and the reference wavelength was set to 650 nm. For each well, the measured absorption at 650 nm was subtracted from the absorption at 450 nm. The measured absorbance for the treated cells was then compared to the controls (blank) containing only cells and growth medium.

## CCCCCCCCCCCCCCNCC(=O)O [N-TTA, N-tetradecylglycine]
[1]; 100 μM TTA, 200 μM 2-triple TTA, 30 μM TDG
  leak respiration after oligomycin: significantly increased
[1]; compared to control
  basal respiratory rate (OCR): decreased in a dose-dependent manner
[1]; higher concentrations
  leak respiration after oligomycin: reduced leak respiration
[2]
  WST-1 activity compared to untreated cells: about 110%
